# Data as given in patent publication US5068247A, “2-aminopentanoic acid compounds and their use as immunosuppressants” (priority 1989, dated 1991).
# Legend:
# [1] = system: allo-reactive cytotoxic T cells in spleen of EL4-immunized BALB/c mice; test: suppression of allo-reactive cytotoxic T cells induced by immunization of mouse with allogenic cells; type: in vivo
# Experimental: Male 5- to 7-week-old BALB/c mice (H-2^d) were immunized with leukemia cell EL4 derived from C57BL/6 mice (H-2^b) (10^7 cells/mouse, intraperitoneal administration), and the test substance was administered intraperitoneally 5 times at the doses of 0.001 to 3 mg/kg/day or orally at the doses of 0.3 to 10 mg/kg/day from the day of immunization. Nine to ten days after immunization, the spleen was resected from the mice to prepare a single cell suspension and the suspension was used as effector cell suspension. The ^51 Cr-release assay was carried out in the same way as in Experiment Example 3, using EL4 cells as the target cells to measure the cytotoxic activity.
# The activity of allo-reactive cytotoxic T cell is indicated by lytic unit (LU) per spleen. One lytic unit (LU) is defined as the number of effector cells required to cause 25% lysis of 5×10^3 target cells. At the same time, the body weight of mouse and number of spleen cells were also determined.
# [2] = system: allo-specific cytotoxic antibody in serum of EL4-immunized BALB/c mice; test: suppression of allo-specific cytotoxic antibody production induced by allogenic cell immunization of mouse; type: in vivo
# Experimental: Male 5- to 7-week-old BALB/c mice were immunized with leukemia cell EL4 derived from C57BL/6 mice (10^7 cells/mouse, intraperitoneal administration) in the same way as in Experiment Example 9, and the […] Nine to ten days after immunization, a serum was collected from the mice. Fifty μl of the two-fold serial dilution of the serum, 50 μl of a guinea pig complement and EL4 cell suspension labelled with ^51 Cr as the target cell (5×10^4 cells/ml, 100 μl) were together added to a 96-well microtest plate. After incubation at 37° C. for 1 hour, the amount of ^51 Cr released in the supernatant was measured, and the complement-dependent cytotoxicity was calculated by the following formula. [formula]
# The value of allo-specific cytotoxic antibody determined as above was expressed by the titer calculated on the basis of the concentration at which the releasing amount of ^51 Cr was 50% of that of ^51 Cr-labelled target cells treated with 0.1 N HCl.
# [3] = cytotoxicity to cultured tumor cell line U937; type: cell-based, human; details: human, u937 cells; 0.1 μg/ml; read-out: Suppression
# Experimental: (§1) Cytotoxicity to various human tumor cell lines was examined as follows:
# (§2) Cells of human cell lines, K562, MOLT4, U937 and HL60 were respectively suspended to the concentration of 4×10^5 cells/ml in the RPMI1640 culture medium supplemented with 20% FCS. Fifty μl of each suspension was added to each well of a 96-well microtest plate to which 50 μl of the test solution had been added. After culturing the suspension at 37° C. in an atmosphere of 5% carbon dioxide for 72 hours, the absorbancy at 570 nm was measured in the same way as with the colorimetry using MTT in Experiment Example 1, and the percent suppression was calculated by the following formula, which was used as an index of cytotoxicity.
# U937 = test: cytotoxicity to cultured tumor cell line U937; type: cell-based, human
# Experimental: as §1, §2
# [4] = 0.03 mg/kg/day po × 10, Table 9E
# [5] = 0.1 mg/kg/day po × 10, Table 9E
# [6] = 0.3 mg/kg/day po × 10, Table 9E
# [7] = 0.003 mg/kg/day po × 10, Table 10D
# [8] = 0.01 mg/kg/day po × 5, Table 10C
# [9] = 0.01 mg/kg/day po × 10, Table 10D
# [10] = 0.03 mg/kg/day po × 5, Table 10C
# [11] = 0.03 mg/kg/day po × 10, Table 10D
# [12] = 0.1 mg/kg/day po × 5, Table 10C
# [13] = 0.1 mg/kg/day po × 10, Table 10D
# [14] = 0.3 mg/kg/day po × 5, Table 10C
# [15] = 0.3 mg/kg/day po × 10, Table 10D
smiles,measurement,setting,value
CCCCCCCCCCCCC/C=C/C[C@@H](O)[C@H](O)[C@@](N)(CO)C(=O)O [Example 5],"Cytotoxic T cell activity, suppression",[1]; [4],71.3%
same,Number of spleen cells,[1]; [4],1.5 ± 0.3 × 10^8
same,Body weight 9 days after immunization,"[1]; 0.1 mg/kg/day ip × 5, Table 9C",25.4 ± 1.9 g
same,Cytotoxic T cell activity,"[1]; 0.1 mg/kg/day ip × 5, Table 9C",158 ± 86 LU/spleen
same,"Cytotoxic T cell activity, suppression","[1]; 0.1 mg/kg/day ip × 5, Table 9C",86.5%
same,Number of spleen cells,"[1]; 0.1 mg/kg/day ip × 5, Table 9C",1.9 ± 0.3 × 10^8 cell
same,Body weight 10 days after immunization,"[1]; 0.1 mg/kg/day po × 5, Table 9D",25.2 ± 0.4 g
same,Cytotoxic T cell activity,"[1]; 0.1 mg/kg/day po × 5, Table 9D",638 ± 155 LU/spleen
same,"Cytotoxic T cell activity, suppression","[1]; 0.1 mg/kg/day po × 5, Table 9D",58.3%
same,Number of spleen cells,"[1]; 0.1 mg/kg/day po × 5, Table 9D",1.7 ± 0.4 × 10^8
same,Body weight 10 days after immunization,[1]; [5],25.0 ± 0.7 g
same,Cytotoxic T cell activity,[1]; [5],731 ± 318 LU/spleen
same,"Cytotoxic T cell activity, suppression",[1]; [5],73.8%
same,Number of spleen cells,[1]; [5],1.4 ± 0.4 × 10^8
same,Body weight 9 days after immunization,"[1]; 0.3 mg/kg/day ip × 5, Table 9C",26.0 ± 1.6 g
same,Cytotoxic T cell activity,"[1]; 0.3 mg/kg/day ip × 5, Table 9C",< 50 LU/spleen
same,"Cytotoxic T cell activity, suppression","[1]; 0.3 mg/kg/day ip × 5, Table 9C",> 95%
same,Number of spleen cells,"[1]; 0.3 mg/kg/day ip × 5, Table 9C",1.9 ± 0.2 × 10^8 cell
same,Body weight 10 days after immunization,"[1]; 0.3 mg/kg/day po × 5, Table 9D",25.4 ± 0.5 g
same,Cytotoxic T cell activity,"[1]; 0.3 mg/kg/day po × 5, Table 9D",609 ± 197 LU/spleen
same,"Cytotoxic T cell activity, suppression","[1]; 0.3 mg/kg/day po × 5, Table 9D",60.2%
same,Number of spleen cells,"[1]; 0.3 mg/kg/day po × 5, Table 9D",1.6 ± 0.3 × 10^8
same,Body weight 10 days after immunization,[1]; [6],24.2 ± 1.3 g
same,Cytotoxic T cell activity,[1]; [6],651 ± 257 LU/spleen
same,"Cytotoxic T cell activity, suppression",[1]; [6],76.6%
same,Number of spleen cells,[1]; [6],1.6 ± 0.3 × 10^8
same,Body weight 10 days after immunization,"[1]; 1 mg/kg/day po × 5, Table 9D",25.0 ± 1.4 g
same,Cytotoxic T cell activity,"[1]; 1 mg/kg/day po × 5, Table 9D",421 ± 12 LU/spleen
same,"Cytotoxic T cell activity, suppression","[1]; 1 mg/kg/day po × 5, Table 9D",72.5%
same,Number of spleen cells,"[1]; 1 mg/kg/day po × 5, Table 9D",1.7 ± 0.3 × 10^8
same,Body weight 10 days after immunization,"[1]; 1 mg/kg/day po × 10, Table 9E",22.4 ± 0.5 g
same,Cytotoxic T cell activity,"[1]; 1 mg/kg/day po × 10, Table 9E",269 ± 179 LU/spleen
same,"Cytotoxic T cell activity, suppression","[1]; 1 mg/kg/day po × 10, Table 9E",90.3%
same,Number of spleen cells,"[1]; 1 mg/kg/day po × 10, Table 9E",1.5 ± 0.3 × 10^8
same,induction of allo-reactive cytotoxic T cells (in words),[1]; 5 times intraperitoneal or oral,strongly suppresses the induction of allo-reactive cytotoxic T cells
same,"induction of allo-reactive cytotoxic T cells (in words), 10 oral administrations","[1]; 10 times oral, up to 0.03 mg/kg",significant suppressive activity up to the dose of 0.03 mg/kg
same,"Allogenic cell-specific antibody in serum, suppression",[2]; [7],28.3%
same,"Allogenic cell-specific antibody in serum, titer",[2]; [7],147 ± 43
same,"Allogenic cell-specific antibody in serum, suppression",[2]; [8],0%
same,"Allogenic cell-specific antibody in serum, titer",[2]; [8],318 ± 75
same,"Allogenic cell-specific antibody in serum, suppression",[2]; [9],45.4%
same,"Allogenic cell-specific antibody in serum, titer",[2]; [9],112 ± 66
same,"Allogenic cell-specific antibody in serum, suppression",[2]; [10],37.8%
same,"Allogenic cell-specific antibody in serum, titer",[2]; [10],186 ± 100
same,"Allogenic cell-specific antibody in serum, suppression",[2]; [11],40.0%
same,"Allogenic cell-specific antibody in serum, titer",[2]; [11],123 ± 43
same,"Allogenic cell-specific antibody in serum, suppression",[2]; [12],61.5%
same,"Allogenic cell-specific antibody in serum, titer",[2]; [12],115 ± 19
same,"Allogenic cell-specific antibody in serum, suppression",[2]; [13],71.2%
same,"Allogenic cell-specific antibody in serum, titer",[2]; [13],59 ± 38
same,"Allogenic cell-specific antibody in serum, suppression",[2]; [14],69.6%
same,"Allogenic cell-specific antibody in serum, titer",[2]; [14],91 ± 67
same,"Allogenic cell-specific antibody in serum, suppression",[2]; [15],76.1%
same,"Allogenic cell-specific antibody in serum, titer",[2]; [15],49 ± 26
same,"Allogenic cell-specific antibody in serum, suppression","[2]; 1 mg/kg/day po × 5, Table 10C",82.5%
same,"Allogenic cell-specific antibody in serum, titer","[2]; 1 mg/kg/day po × 5, Table 10C",52 ± 27
same,"Allogenic cell-specific antibody in serum, suppression","[2]; 1 mg/kg/day po × 10, Table 10D",76.6%
same,"Allogenic cell-specific antibody in serum, titer","[2]; 1 mg/kg/day po × 10, Table 10D",48 ± 37
same,allo-specific cytotoxic antibody production in serum (in words),"[2]; intraperitoneal or oral, Tables 10A to 10D",strongly suppresses allo-specific cytotoxic antibody production in serum
same,cytotoxicity at 72 h,[3],0%
same,Absorbancy,U937; 0.1 μg/ml,0.695 ± 0.032
same,Absorbancy,U937; 1 μg/ml,0.699 ± 0.044
same,Absorbancy,U937; 10 μg/ml,0.684 ± 0.038
